Laboratory results published in publication PMC11192927, “The potential of a novel enzyme-based surface plasmon resonance biosensor for direct detection of dopamine” (Scientific Reports, 2024).

Biological target: laccase (CotA) (Bacillus sp. HR03, UniProt B9W2C5)
Assay: biochemical

laccase (CotA), sequence (B9W2C5 1-513): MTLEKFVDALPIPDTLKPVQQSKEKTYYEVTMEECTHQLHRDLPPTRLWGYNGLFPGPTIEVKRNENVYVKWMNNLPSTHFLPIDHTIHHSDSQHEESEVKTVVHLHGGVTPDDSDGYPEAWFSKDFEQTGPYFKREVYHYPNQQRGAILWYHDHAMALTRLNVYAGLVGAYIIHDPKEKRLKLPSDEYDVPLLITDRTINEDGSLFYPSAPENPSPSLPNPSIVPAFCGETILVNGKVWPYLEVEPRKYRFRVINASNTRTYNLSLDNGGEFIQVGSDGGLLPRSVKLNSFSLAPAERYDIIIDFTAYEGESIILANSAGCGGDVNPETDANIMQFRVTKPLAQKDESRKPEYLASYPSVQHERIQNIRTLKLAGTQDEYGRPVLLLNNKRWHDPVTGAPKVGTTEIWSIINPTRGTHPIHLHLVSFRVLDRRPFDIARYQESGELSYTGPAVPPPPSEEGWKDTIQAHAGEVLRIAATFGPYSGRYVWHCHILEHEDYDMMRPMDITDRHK

- Kd: 48.5 nM
SMILES: NCCc1ccc(O)c(O)c1 [dopamine]
